Assays:
JAK1 (h) = JAK1 (h) (Homo sapiens (Human), UniProt P23458); experiment: JAK1 kinase assay (33P-ATP filter binding, Millipore); assay type: biochemical
Experimental: Kinase assays can be performed by measurement of incorporation of γ-^33P ATP into immobilized myelin basic protein (MBP). High binding white 384 well plates (Greiner) are coated with MBP (Sigma #M−1891) by incubation of 60 μL/well of 20 μg/mL MBP in Tris-buffered saline (TBS; 50 mM Tris pH 8.0, 138 mM NaCl, 2.7 mM KCl) for 24 h at 4° C. Plates are washed 3× with 100 μL TBS. Kinase reactions are carried out in a total volume of 34 μL in kinase buffer (5 mM Hepes pH 7.6, 15 mM NaCl, 0.01% bovine gamma globulin (Sigma #I-5506), 10 mM MgCl2, 1 mM DTT, 0.02% TritonX-100). Compound dilutions are performed in DMSO and added to assay wells to a final DMSO concentration of 1%. Each data point is measured in duplicate, and at least two duplicate assays are performed for each individual compound determination. Enzyme is added to final concentrations of 10 nM or 20 nM, for example. A mixture of unlabeled ATP and γ-^33P ATP is added to start the reaction (2×10^6 cpm of γ-^33P ATP per well (3000 Ci/mmole) and 10 μM unlabeled ATP, typically. The reactions are carried out for 1 h at room temperature with shaking. Plates are washed 7× with TBS, followed by the addition of 50 μL/well scintillation fluid (Wallac). Plates are read using a Wallac Trilux counter. This is only one format of such assays; various other formats are possible, as known to one skilled in the art.
The above assay procedure can be used to determine the IC50 for inhibition and/or the inhibition constant, Ki. The IC50 is defined as the concentration of compound required to reduce the enzyme activity by 50% under the condition of the assay. The IC50 value is estimated by preparing a 10 point curve using a 1/2 log dilution series (for example, a typical curve may be prepared using the following compound concentrations: 3 μM, 1 μM, 0.3 μM, 0.1 μM, 0.03 μM, 0.01 μM, 0.003 μM, 0.001 μM, 0.0003 μM and 0 μM).
The kinase assays described herein were performed at Millipore UK Ltd, Dundee Technology Park, Dundee DD2 1SW, UK.

[1] = Pharmacokinetics after intravenous and oral administration in rats; assay type: in vivo; conditions: for Clearance (CL) after iv dosing / AUC(0-t) / half-life / Vd: dose 1 mg/kg (Ex. 27: 0.72 mg/kg), iv dosing; for F: oral bioavailability; for AUC(0-t) / half-life / Vd: rat, plasma; for Vd: read-out: Vss
Experimental: The LC/MS/MS system used in the analysis consists of an Agilent 1200 Series vacuum degasser, binary pump, well-plate autosampler, thermostatted column compartment, the Agilent G6430 Triple Quadrupole Mass Spectrometer with an electrosprayionization (ESI) source. Quantitative analysis was carried out using MRM mode. The parameters for MRM transitions are in the Table A.
An Agilent XDB-C18, 2.1×30 mm, 3.5 μM column was used for the analysis. 5 μL of the samples were injected. Analysis condition: The mobile phase was 0.1% formic acid in water (A) and 0.1% formic acid in methanol (B). The flow rate was 0.4 mL/min. And the gradient of Mobile phase was in the Table B.
Alternatively, an Agilent 6330 series LC/MS/MS spectrometer equipped with G1312A binary pumps, a G1367A autosampler and a G1314C UV detector were used in the analysis. An ESI source was used on the LC/MS/MS spectrometer. The analysis was done in positive ion mode as appropriate and the MRM transition for each analyte was optimized using standard solution. A Capcell MP-C18 100×4.6 mm I.D., […] column (Phenomenex, Torrance, Calif., USA) was used during the analysis. The mobile phase was 5 mM ammonia acetate, 0.1% MeOH in water (A): 5 mM ammonia acetate, 0.1% MeOH in acetonitrile (B) (70:30, v/v). The flow rate was 0.6 mL/min. Column was maintained at ambient temperature. 20 μL of the samples were injected.
The compounds disclosed herein are assessed in pharmacokinetic studies in mice, rats, dogs or monkeys. The compounds are administered as a water solution, 2% HPMC+1% TWEEN®80 in water solution, 5% DMSO+5% solution in saline, 4% MC suspension or capsule. For the intravenous administration, the animals are generally given at 1 or 2 mg/kg dose. For the oral (p.o.) dosing, mice and rats are generally given 5 or 10 mg/kg dose, and dogs and monkeys are generally given 10 mg/kg dose. The blood samples (0.3 mL) are drawn at 0.25, 0.5, 1.0, 2.0, 3.0, 4.0, 6.0, 8.0, 12 and 24 h time points or 0.083, 0.25, 0.5, 1.0, 2.0, 4.0, 6.0, 8.0 and 24 h time points and centrifuged at 3,000 or 4000 rpm for 2 to 10 min. The plasma solutions are collected, and stored at −20° C. or −70° C. until analyzed by LC/MS/MS as described above.

[2] = Compound stability in human liver microsomes; assay type: in vitro ADME; conditions: for half-life at 5 μM: compound 5 μM, NADPH 1.0 mM, 37° C.; for CLint scaled at 5 μM: in vivo CLint extrapolated
Experimental: (§1) Human or rat liver microsomes incubations were conducted in duplicate in polypropylene tubes. The typical incubation mixtures consisted of human or rat liver microsomes (0.5 mg protein/mL), compounds of interest (5 μM) and NADPH (1.0 mM) in a total volume of 200 μL potassium phosphate buffer (PBS, 100 mM, pH 7.4). Compounds were dissolved in DMSO and diluted with PBS such that the final concentration of DMSO was 0.05%. The enzymatic reactions were commenced with the addition of protein after a 3-min preincubation and incubated in a water bath open to the air at 37° C. Reactions were terminated at various time points (0, 5, 10, 15, 30, 60 min) by adding equal volume of ice-cold acetonitrile. The samples were stored at −80° C. until LC/MS/MS assays.
(§2) The concentrations of compounds in the incubation mixtures of human or rat liver microsomes were determined by a LC/MS/MS method. The ranges of the linearity in the concentration range were determined for each tested compounds.
(§3) A parallel incubation was performed using denatured microsomes as the negative control, and reactions were terminated at various time points (0, 15, 60 min) after incubation at 37° C.
(§4) Dextromethorphan (70 μM) was selected as the positive control, and reactions were terminated at various time points (0, 5, 10, 15, 30, 60 min) after incubation at 37° C. Both positive and negative control samples were included in each assay to ensure the integrity of the microsomal incubation system.
(§5) The concentrations of compounds in human or rat liver microsome incubations were plotted as a percentage of the relevant zero time point control for each reaction. The in vivo CLint were extrapolated (ref.: Naritomi, Y.; Terashita, S.; Kimura, S.; Suzuki, A.; Kagayama, A.; and Sugiyama, Y.; Prediction of human hepatic clearance from in vivo animal experiments and in vitro metabolic studies with liver microsomes from animals and humans. Drug Metab. Dispos., 2001, 29: 1316-1324).

[3] = Compound stability in rat liver microsomes; assay type: in vitro ADME; conditions: for half-life at 5 μM: compound 5 μM, NADPH 1.0 mM, 37° C.; for CLint scaled at 5 μM: in vivo CLint extrapolated
Experimental: as §1, §2, §3, §4, §5

[4] = pH 7.4, Human liver microsomes 0.5 mg protein/mL
[5] = pH 7.4, Rat liver microsomes 0.5 mg protein/mL

Sequence of JAK1 (h) (P23458 whole entry): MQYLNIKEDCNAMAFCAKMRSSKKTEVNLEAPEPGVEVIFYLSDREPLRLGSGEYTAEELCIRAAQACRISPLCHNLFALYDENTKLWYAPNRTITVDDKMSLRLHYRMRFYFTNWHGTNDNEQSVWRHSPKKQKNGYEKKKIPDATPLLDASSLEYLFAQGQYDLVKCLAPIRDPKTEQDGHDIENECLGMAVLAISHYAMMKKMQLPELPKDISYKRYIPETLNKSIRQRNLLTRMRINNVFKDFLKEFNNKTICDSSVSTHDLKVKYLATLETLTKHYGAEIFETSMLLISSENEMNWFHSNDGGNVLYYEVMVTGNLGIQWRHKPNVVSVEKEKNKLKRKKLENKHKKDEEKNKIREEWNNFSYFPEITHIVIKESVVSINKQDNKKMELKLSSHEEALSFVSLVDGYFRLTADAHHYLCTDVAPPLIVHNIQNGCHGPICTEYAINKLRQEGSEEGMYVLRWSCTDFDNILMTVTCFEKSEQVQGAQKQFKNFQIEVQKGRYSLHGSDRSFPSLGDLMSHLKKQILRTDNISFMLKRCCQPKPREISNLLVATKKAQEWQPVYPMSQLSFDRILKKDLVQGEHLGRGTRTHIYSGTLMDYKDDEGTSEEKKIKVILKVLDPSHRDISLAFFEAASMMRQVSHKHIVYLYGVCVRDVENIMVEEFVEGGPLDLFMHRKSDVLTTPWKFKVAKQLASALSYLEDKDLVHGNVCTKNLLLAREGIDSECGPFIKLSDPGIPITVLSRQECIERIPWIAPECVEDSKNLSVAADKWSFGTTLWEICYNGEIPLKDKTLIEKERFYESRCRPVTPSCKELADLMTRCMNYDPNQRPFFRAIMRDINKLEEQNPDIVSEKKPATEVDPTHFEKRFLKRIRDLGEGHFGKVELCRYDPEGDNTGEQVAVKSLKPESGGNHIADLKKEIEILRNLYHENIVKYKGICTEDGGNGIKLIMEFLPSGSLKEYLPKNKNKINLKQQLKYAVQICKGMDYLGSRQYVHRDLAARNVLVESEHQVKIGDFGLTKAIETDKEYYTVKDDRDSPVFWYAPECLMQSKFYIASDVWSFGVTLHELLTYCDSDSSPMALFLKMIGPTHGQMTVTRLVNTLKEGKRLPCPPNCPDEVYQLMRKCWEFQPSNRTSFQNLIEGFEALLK

SMILES	IC50 (JAK1 (h)) [nM]	Clearance (CL) after iv dosing [1] [mL/min/kg]	F [1] [%]	AUC(0-t) [1] [ng·h/mL]	half-life [1] [min]	Vd [1] [L/kg]	half-life at 5 μM [2, 4] [min]	CLint scaled at 5 μM ([2]; pH 7.4, Human liver microsomes) [mL/min/kg]	half-life at 5 μM [3, 5] [min]	CLint scaled at 5 μM ([3]; pH 7.4, Rat liver microsomes) [mL/min/kg]	half-life at 5 μM ([2]; human, liver microsomes, pH 7.4, Human liver microsomes 0.5 mg protein/mL) [min]	CLint scaled at 5 μM ([2]; human, liver microsomes, pH 7.4, Human liver microsomes) [mL/min/kg]	half-life at 5 μM ([3]; rat, liver microsomes, pH 7.4, Rat liver microsomes 0.5 mg protein/mL) [min]	CLint scaled at 5 μM ([3]; rat, liver microsomes, pH 7.4, Rat liver microsomes) [mL/min/kg]
CN(c1nc(Nc2cnn(C)c2)ncc1Cl)C1CC2CN(C(=O)CC#N)CC2C1 (centres unmarked) [Ex. 69, 3-(5-((5-chloro-2-((1-methyl-1H-pyrazol-4-yl)amino)pyrimidin-4-yl)(methyl)amino)hexahydrocyclopenta[c]pyrrol-2(1H)-yl)-3-oxopropanenitrile]	15	65.2	56.2	281	28.2	1.19	95.6	18.2	12.2	204	–	–	–	–
Cc1cnc(Nc2cnn(C)c2)nc1NC1CC2CN(c3ccc(C#N)cn3)CC2C1 (centres unmarked) [Ex. 59, 6-(5-((5-methyl-2-((1-methyl-1H-pyrazol-4-yl)amino)pyrimidin-4-yl)amino)hexahydrocyclopenta[c]pyrrol-2(1H)-yl)nicotinonitrile]	1	26.8	36.9	648	58.2	1.76	–	–	–	–	–	–	–	–
Cn1cc(Nc2ncc(Cl)c(NC3CN(C(=O)CC#N)CC34CCCC4)n2)cn1 (centres unmarked) [Ex. 18, 3-(4-((5-chloro-2-((1-methyl-1H-pyrazol-4-yl)amino)pyrimidin-4-yl)amino)-2-azaspiro[4.4]nonan-2-yl)-3-oxopropanenitrile]	7	45.8	55.9	731	136	4.32	–	–	–	–	–	–	–	–
N#CCC(=O)N1CCC2(CCC(Nc3nc(Nc4cnn(CC5CC5)c4)ncc3Cl)CC2)CC1 [Ex. 48, 3-(9-((5-chloro-2-((1-(cyclopropylmethyl)-1H-pyrazol-4-yl)amino)pyrimidin-4-yl)amino)-3-azaspiro[5.5]undecan-3-yl)-3-oxopropanenitrile]	0.4	66.2	13.6	252	43.8	3.41	–	–	–	–	47.6	36.5	24.3	102

Second part, led by results:

IC50 (JAK1 (h)) [nM]	Clearance (CL) after iv dosing [1] [mL/min/kg]	F [1] [%]	AUC(0-t) [1] [ng·h/mL]	half-life [1] [min]	Vd [1] [L/kg]	half-life at 5 μM [2, 4] [min]	CLint scaled at 5 μM ([2]; pH 7.4, Human liver microsomes) [mL/min/kg]	half-life at 5 μM [3, 5] [min]	CLint scaled at 5 μM ([3]; pH 7.4, Rat liver microsomes) [mL/min/kg]	SMILES	half-life at 5 μM ([2]; human, liver microsomes, pH 7.4, Human liver microsomes 0.5 mg protein/mL) [min]	CLint scaled at 5 μM ([2]; human, liver microsomes, pH 7.4, Human liver microsomes) [mL/min/kg]	half-life at 5 μM ([3]; rat, liver microsomes, pH 7.4, Rat liver microsomes 0.5 mg protein/mL) [min]	CLint scaled at 5 μM ([3]; rat, liver microsomes, pH 7.4, Rat liver microsomes) [mL/min/kg]
7	81.8	21.0	201	16.2	2.28	81.5	21.3	21.2	117	Cc1c(Nc2ncc(Cl)c(NC3CC4CN(C(=O)CC#N)CC4C3)n2)cnn1C (centres unmarked) [Ex. 66, 3-(5-((5-chloro-2-((1,5-dimethyl-1H-pyrazol-4-yl)amino)pyrimidin-4-yl)amino)hexahydrocyclopenta[c]pyrrol-2(1H)-yl)-3-oxopropanenitrile]	–	–	–	–
5	36.3	31.3	459	32.4	0.95	37.6	46.2	41.4	60	Cn1nc(C2CC2)cc1Nc1ncc(Cl)c(NC2CC3CN(C(=O)CC#N)CC3C2)n1 (centres unmarked) [Ex. 56, 3-(5-((5-chloro-2-((3-cyclopropyl-1-methyl-1H-pyrazol-5-yl)amino)pyrimidin-4-yl)amino)hexahydrocyclopenta[c]pyrrol-2(1H)-yl)-3-oxopropanenitrile]	–	–	–	–
57	49.3	12.0	343	33	1.09	243	7.15	398	6.24	N#CCC(=O)N1CC2CC(Nc3nc(Nc4cnn(CCO)c4)ncc3Cl)CC2C1 (centres unmarked) [Ex. 44, 3-(5-((5-chloro-2-((1-(2-hydroxyethyl)-1H-pyrazol-4-yl)amino)pyrimidin-4-yl)amino)hexahydrocyclopenta[c]pyrrol-2(1H)-yl)-3-oxopropanenitrile]	–	–	–	–
4	82.8	29.6	184	48.6	5.43	271	6.41	81.1	30.6	Cc1cnc(Nc2cnn(C)c2)nc1NC1CC2CN(S(C)(=O)=O)CC2C1 (centres unmarked) [Ex. 62, 5-methyl-N^2-(1-methyl-1H-pyrazol-4-yl)-N^4-(2-(methylsulfonyl)octahydrocyclopenta[c]pyrrol-5-yl)pyrimidine-2,4-diamine]	–	–	–	–
5	–	–	–	–	–	244	7.11	240	10.3	Cc1cnc(Nc2cnn(C)c2)nc1NC1CC2CN(C(=O)CC#N)CC2C1 (centres unmarked) [Ex. 60, 3-(5-((5-methyl-2-((1-methyl-1H-pyrazol-4-yl)amino)pyrimidin-4-yl)amino)hexahydrocyclopenta[c]pyrrol-2(1H)-yl)-3-oxopropanenitrile]	–	–	–	–

Source: patent US9403801B2 (Calitor Sciences, LLC, priority 2014, dated 2016)
